One may read the IC50 as the midpoint of a concentration-inhibition curve. Low values mean higher potency, high ones lower potency.

T2 sequence (Q86WV6 140-379 G230A/H232R/R293Q): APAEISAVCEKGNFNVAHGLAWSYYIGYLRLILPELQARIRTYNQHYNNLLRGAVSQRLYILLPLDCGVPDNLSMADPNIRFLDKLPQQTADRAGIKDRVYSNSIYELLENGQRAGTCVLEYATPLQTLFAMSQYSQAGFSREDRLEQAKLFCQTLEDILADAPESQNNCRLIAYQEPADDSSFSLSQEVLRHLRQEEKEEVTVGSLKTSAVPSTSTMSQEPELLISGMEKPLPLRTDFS

One experiment deals with T1, STING in THP1 cells (HAQ allele) (Homo sapiens, UniProt Q86WV6, G230A/H232R/R293Q/R71H).
T1 construct: host or cells: THP-1 dual reporter cells
T1 sequence (Q86WV6 whole entry R71H/G230A/H232R/R293Q): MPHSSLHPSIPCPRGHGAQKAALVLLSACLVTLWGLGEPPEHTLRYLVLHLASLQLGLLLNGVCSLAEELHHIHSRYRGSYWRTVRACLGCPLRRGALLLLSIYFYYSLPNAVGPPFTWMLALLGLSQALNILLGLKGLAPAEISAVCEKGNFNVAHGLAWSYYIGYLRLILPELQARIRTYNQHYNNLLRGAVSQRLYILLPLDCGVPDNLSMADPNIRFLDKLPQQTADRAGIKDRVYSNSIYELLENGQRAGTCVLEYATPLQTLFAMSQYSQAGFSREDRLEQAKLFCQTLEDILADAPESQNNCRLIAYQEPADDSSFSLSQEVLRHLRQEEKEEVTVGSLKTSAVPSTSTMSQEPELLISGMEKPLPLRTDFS
Put plainly: THP-1 competition assay with STING agonist 2′3′-RR-(A)(A) (IRF-3 luciferase reporter). Format: cell-based.
Conditions: not given
Here is the method: The scaffold molecules and STING inhibitory compounds as described herein are assayed for their ability to inhibit the induction of STING dependent IFN-β production by an agonist compound in a competition assay. Relative induction of IRF-3 signaling in THP-1 cells (HAQ allele) was measured after stimulating the cells with a mix of a scaffold molecule (or any putative STING antagonist) titrated against a constant concentration of the STING agonist 2′3′-RR-(A)(A) in PB buffer (50 mM HEPES pH 7.5, 100 mM KCl, 3 mM MgCl2, 0.1 mM DTT, 85 mM sucrose, 0.2% BSA, 1 mM ATP, 0.1 mM GTP).
One day prior to performing the assay, THP-1 dual (Invivogen) reporter cells were plated at 500,000 cells/mL in 200 μL per well in a 96-well plate and differentiated overnight with 3 μg/mL phorbal myristate acetate in RPMI medium 1640 (4.5 g/L D-glucose, 2.383 g/L HEPES, 300 mg/L L-glutamine, 1.5 g/L sodium bicarbonate, 110 mg/L sodium pyruvate, 10% heat-inactivated fetal bovine serum, 1× penicillin/streptomycin, 0.1 mg/mL normocin).
On the day of the assay, the media was removed from the wells and replaced with 150 μL of fresh media. The titrations against 2′ 3′-RR-(A)(A) in a final volume of 100 μL were made as follows: two-fold dilutions (2,000 μM-3.9 μM) of the scaffold molecule into PB buffer containing 100 μM 2′3′-RR-(A)(A) for a final concentration of 50 μM 2′3′-RR-(A)(A). Compounds were tested in biological triplicate.
The cells were then stimulated with 25 μL of each titration for 30 minutes at 37° C. in a CO2 incubator. After stimulating, the cells were washed twice, first with 100 μL and then 150 μL of fresh media. After washing, 150 μL of media was added to each well and the cells were incubated for 17 hours overnight at 37° C. in a CO2 incubator.
To detect IRF-3 signaling, 50 μL of luciferase substrate (Invivogen QUANTI-Luc coelenterazine-based luminescence reagent reconstituted in 25 mL water) was added to 10 μL of supernatant from each well in a 96-well white opaque plate. Luminescence was measured using a SpectraMax M3 plate reader (Molecular Devices) and relative fold-induction was calculated as the values obtained from wells containing both the scaffold molecule and 2′3′-RR-(A)(A) divided by the values obtained from wells containing 2′3′-RR-(A)(A) alone. The average of the relative fold-induction was plotted against the log concentration of the antagonist. Agonist compounds 2′3′-RR-(G)(A) and RR-(A)(A) were run as controls in this assay (see FIGS. 2A and 2B).
The results are provided for control compounds in FIGS. 2A and 2B and scaffold molecules in FIGS. […]: 2′3′-SR-(3′OTBS-A)(2′F-A) (FIG. 3A, Comp. 6a), SR-(2′F-A)(2′OTBS-A) (FIG. 3B, Comp. 18a), RR-(2,6-DAP)(2,6-DAP) (FIG. 3C, Comp. 23), RS-(2,6-DAP)(2,6-DAP) (FIG. 3D, Comp. 23a), (6-O-propargyl-G)(G) (FIG. 3E, Comp. 25), RR-(2′F-ibG)(2′F-ibG) (FIG. 3F, Comp. 32), RR-(2′F-C)(2′F-A) (FIG. 3G, Comp. 37), RS-(2′F-C)(2′F-A) (FIG. 3H, Comp. 37a), 3′2′-RR-(ibG)(BzA) (FIG. 3I, Comp. 42), 3′2′-SS-(G)(A) (FIG. 3J, Comp. 43), dithio-3′2′-(2′OTBS-G)(3′OTBS-A) isomer 1 (FIG. 3K, Comp. 49, isomer 1), dithio-3′2′-(2′OTBS-G)(3′OTBS-A) isomer 2 (FIG. 3L, Comp. 49, isomer 2), Beta-L-SS-(A)(A) (FIG. 3M, Comp. 48), Beta-L-RS-(A)(A) (FIG. 3N, Comp. 48a), and Beta-L-RR-(A)(A) (FIG. 3O, Comp. 48b). Isomer 1 and 2 of Compound 49 are different isomers, and are each one of compound 49a, 49b, 49c or 49d.
Compound `CC(C)(C)[Si](C)(C)O[C@@H]1[C@@H]2OP(=O)(S)OC[C@H]3O[C@@H](n4cnc5c(N)ncnc54)[C@H](OP(=O)(S)OC[C@H]2O[C@H]1n1cnc2c(=O)[nH]c(N)nc21)[C@@H]3O[Si](C)(C)C(C)(C)C` (single isomer, unassigned) [compound 49 isomer 1, dithio-3′2′-(2′OTBS-G)(3′OTBS-A) isomer 1] yielded an IC50 of 109 µM. The same measure, in the same setting: the result for `CC(C)(C)[Si](C)(C)O[C@@H]1[C@@H]2O[P@](=O)(S)OC[C@H]3O[C@@H](n4cnc5c(N)ncnc54)[C@H](F)[C@@H]3O[P@@](=O)(S)OC[C@H]2O[C@H]1n1cnc2c(N)ncnc21` [Compound 18a, (2R,3R,3aR,5R,7aR,9R,10R,10aR,12S,14aR)-2,9-bis(6-amino-9H-purin-9-yl)-3-((tert-butyldimethylsilyl)oxy)-10-fluoro-5,12-dimercaptooctahydro-2H,7H-difuro[3,2-d:3′,2′-j][1,3,7,9]tetraoxa[2,8]diphosphacyclododecine 5,12-dioxide] reads 2110 µM; that for `CC(C)(C)[Si](C)(C)O[C@@H]1[C@@H]2OP(=O)(S)OC[C@H]3O[C@@H](n4cnc5c(N)ncnc54)[C@H](OP(=O)(S)OC[C@H]2O[C@H]1n1cnc2c(=O)[nH]c(N)nc21)[C@@H]3O[Si](C)(C)C(C)(C)C` (single isomer, unassigned) [compound 49 isomer 2, dithio-3′2′-(2′OTBS-G)(3′OTBS-A) isomer 2], 420 µM.

A further experiment has as its target T2, hSTING HAQ allele (Homo sapiens, UniProt Q86WV6, G230A/H232R/R293Q).
T2 construct: DNA encoding amino acids 140-379 (amino acid numbering corresponding to Swiss Prot Q86WV6); 6xHIS-SUMO (with TEV site) (N, cleaved yes); made in house; host or cells: Rosetta2 (DE3) E. coli
The experiment in a line: Differential scanning fluorometry (DSF) Tm shift with purified STING AA140-379. To be noted: DSF, ligand 1 mM, 1 mg/ml STING AA140-379; read-out: hSTING Tm Shift HAQ. The format is binding. The text has this: DNA encoding amino acids 140-379 (amino acid numbering corresponding to Swiss Prot Q86WV6) was amplified from plasmids containing the full length sequence of human STING alleles via polymerase chain reaction with the following primers: forward […] (SEQ ID NO: 9) and reverse […] (SEQ ID NO: 10). STING variant alleles were assigned according to Yi, et al, (2013), PLoS One, 8(10), e77846 (DOI: 10.1371/journal.pone.0077846. PCR products were cloned into bacterial expression vector encoding a N-terminal hexa-histidine affinity tag (6×HIS) followed by a small ubiquitin-like modifier (SUMO) solubility sequence (Butt, et al, (2005) Protein expression and purification 43.1, 1-9) and tobacco etch virus protease cleavage site (TEV) using ligation independent cloning (Aslanidis, et al, (1990) Nucleic acids research, 18.20, 6069-6074).
Plasmids encoding 6×HIS-SUMO-TEV-STING amino acids 140-379 were transformed into Rosetta2 (DE3) E. coli cells (EMD Millipore) for protein expression. Cells were grown in lysogeny broth at 37° C. until a […] absorbance of 0.6 was reached. Cells were then transferred to 18° C. and protein expression was induced overnight by the addition of isopropyl β-D-1-thiogalactopyranoside to the media at a concentration of 0.25 mM. Cells were harvested by centrifugation at 6,000 times gravity for 10 minutes. Cell pellets were re-suspended on ice in a buffer containing 50 mM Tris hydrochloride (Tris-HCl) pH 7.5, 500 mM sodium chloride (NaCl), 20 mM imidazole, 10% glycerol, 1 mM tris(2-carboxyethyl)phosphine hydrochloride (TCEP) and protease inhibitor tablet (Pierce) (Buffer A). Cells were lysed using an S-450D sonifier (Emmerson industrial) on ice. Cell lysate was centrifuged at 15,000 times gravity for 30 minutes at 4° C. Soluble material was applied to nickel-nitrilotriacetic acid (Ni-NTA) coupled Sepharose CL-6B (Qiagen) for 1 hour with gentle rocking at 4° C. After transfer to a gravity flow poly-prep column (Bio-Rad), resin was washed extensively in buffer A. Protein was eluted from the column in a buffer containing 20 mM Tris-HCl pH 7.5, 150 mM NaCl, 300 mM imidazole, 10% glycerol and 0.5 mM TCEP. To remove the 6×HIS-SUMO tag eluted protein was mixed with TEV protease (Sigma) at a ratio of 1:250 (w:w) and dialyzed overnight against a buffer containing 20 mM Tris-HCl pH 7.5, 150 mM NaCl, 5 mM imidazole, 10% glycerol and 0.5 mM TCEP. TEV protease and 6×HIS-SUMO tags were depleted by the addition of Ni-NTA resin (Qiagen) to the sample, purified STING amino acids 140-379 was collected by removal of the resin using a poly-prep column STING AA140-379 was concentrated with a 10,000 Dalton molecular weight cutoff centrifuge concentrator (EMD Millipore) to a final concentration of approximately 10 mg/ml. Protein was aliquoted, flash frozen in liquid nitrogen and stored at −80° C. until use.
Differential scanning fluorometry (DSF) is a technique that measures the ability of ligands to bind to and stabilize purified proteins (Niesen, et al, (2007) Nature protocols 2.9, 2212-2221). The protein is heated in the presence of a dye that binds to and fluoresces in hydrophobic environments. The protein is thermally denatured by heating resulting in increased dye binding to the unfolded protein and fluorescence. The temperature midpoint (Tm) of a proteins denaturation is established by calculating the half maximal value of the denaturation curve. The temperature midpoint of the protein in the presence of a ligand is directly related to the affinity of the ligand for the protein and therefore its ability to stabilize the protein at higher temperatures.
DSF was performed in a 20 μL reaction comprising 20 mM Tris-HCl pH 7.5, 150 mM NaCl, 1:500 dilution of SYPRO Orange (Life Technologies), 1 mg/ml purified STING AA140-379 protein and ligand at a concentration of 1 mM. Wild type hSTING, HAQ allele hSTING and/or REF allele hSTING were used with scaffold molecules of the invention as listed in Table 2.
For orientation: Differential scanning fluorimetry follows unfolding on heating by fluorescence.
In the case of `CC(C)C(=O)Nc1nc2c(ncn2[C@@H]2O[C@@H]3CO[P@](=O)(S)O[C@@H]4[C@H](O)[C@@H](CO[P@@](=O)(S)O[C@H]3[C@H]2O)O[C@H]4n2cnc3c(NC(=O)c4ccccc4)ncnc32)c(=O)[nH]1` [Compound 42a, dithio-[RP, SP]-cyclic-[ibG(3′,5′)p-BzA(2′,5′)p]], the ΔTm at 1000 µM was determined as 4.2 °C. Same read-out and setting: the result for `C#CCOc1nc(N)nc2c1ncn2[C@@H]1O[C@@H]2COP(=O)(O)O[C@H]3[C@@H](O)[C@H](n4cnc5c(OCC#C)nc(N)nc54)O[C@@H]3COP(=O)(O)O[C@H]2[C@H]1O` [compound 26, (2R,3R,3aS,7aR,9R,10R,10aS,14aR)-2,9-bis(2-amino-6-(prop-2-yn-1-yloxy)-9H-purin-9-yl)-3,5,10,12-tetrahydroxyoctahydro-2H,7H-difuro[3,2-d: 3′,2′-j][1,3,7,9]tetraoxa[2,8]diphosphacyclododecine 5,12-dioxide] reads 5.4 °C. Still for that read-out and setting: then `CC(C)C(=O)Nc1nc2c(ncn2[C@@H]2O[C@@H]3CO[P@@](=O)(S)O[C@H]4[C@@H](F)[C@H](n5cnc6c(=O)[nH]c(NC(=O)C(C)C)nc65)O[C@@H]4CO[P@](=O)(S)O[C@H]3[C@H]2F)c(=O)[nH]1` [Compound 32a, N,N′-(((2R,3R,3aR,5R,7aR,9R,10R,10aR,12S,14aR)-3,10-difluoro-5,12-dimercapto-5,12-dioxidooctahydro-2H,7H-difuro[3,2-d:3′,2′-j][1,3,7,9]tetraoxa[2,8]diphosphacyclododecine-2,9-diyl)bis(6-oxo-6,9-dihydro-1H-purine-9,2-diyl))bis(2-methylpropanamide)], with 9.9 °C.

The experiment is the same for the next values; noted with them: read-out: hSTING Tm Shift HAQ.
With `CC(C)(C)[Si](C)(C)O[C@H]1[C@H]2O[P@](=O)(S)OC[C@H]3O[C@@H](n4cnc5c(N)ncnc54)[C@H](F)[C@@H]3O[P@](=O)(S)OC[C@H]1O[C@H]2n1cnc2c(N)ncnc21` [Compound 6, dithio-[RP, RP]-cyclic-[3′OTBS-A(2′,5′)p-2′F-A(3′,5′)p]], the ΔTm at 1000 µM was 18.1 °C. The same measure, in the same setting: the result for `CC(C)(C)[Si](C)(C)O[C@H]1[C@H]2O[P@@](=O)(S)OC[C@H]3O[C@@H](n4cnc5c(N)nc(N)nc54)[C@H](O)[C@@H]3O[P@](=O)(S)OC[C@H]1O[C@H]2n1cnc2c(N)ncnc21` [Compound 12a, dithio-[SP, RP]-cyclic-[A(2′,5′)p-2,6-DAP(3′,5′)p]] reads 14.5 °C. The same measure, in the same setting: the result for `CC(C)(C)[Si](C)(C)O[C@H]1[C@H]2O[P@](=O)(S)OC[C@H]3O[C@@H](n4cnc5c(N)nc(N)nc54)[C@H](O)[C@@H]3O[P@](=O)(S)OC[C@H]1O[C@H]2n1cnc2c(N)ncnc21` [Compound 12, dithio-[RP, RP]-cyclic-[A(2′,5′)p-2,6-DAP(3′,5′)p]] reads 14.3 °C.

The values are drawn from patent publication US20180369268A1, “METHODS FOR IDENTIFYING INHIBITORS OF "STIMULATOR OF INTERFERON GENE"- DEPENDENT INTERFERON PRODUCTION” (ADURO BIOTECH, INC., priority 2015, published 2018).
